{"source": "patent US20210015793A1", "about": "“COMPOUNDS FOR TREATING CNS- AND NEURODEGENERATIVE DISEASES” (ETH ZURICH, priority 2018, published 2021)", "assay_type_in_all_cases": "in vivo, mouse", "key": {"female B6 mice": {"tested_on": "female B6 mice", "assay": "Aging-induced decrease in fertility in female B6 mice", "conditions": "8 mg/kg/d in drinking water from 3 to 21 months of age, vs untreated controls", "experimental": "(A,B) Treatment of B6 mice with Compound-1 (A) and Compound-1F (B) at a daily dose of 8 mg/kg/d in drinking water was started at an age of 3 months and continued until the end of the observation period at 21 months. The age of the male breeder(s) was <10 months. The number of offspring per month is given (±s.d.; n=5; p=0.0167 for Compound-1, and p=0.0032 for Compound-1F compared to untreated controls; unpaired, two-tailed Student's t-test)."}, "Tg2576 AD mice": {"tested_on": "Tg2576 AD mice", "assay": "Hippocampal hyperphosphorylated PHF tau by direct binding assay with [125I]-labeled AT8 antibody, Tg2576 mice subjected to CUMS", "conditions": "15-month-old Tg2576 mice, 3 months of CUMS with treatment, vs untreated stressed controls", "excerpt": "For a genetic model of familial AD (FAD), Tg2576 mice (Taconic Biosciences, Rensselaer, N.Y., USA) were used with neuron-specific overexpression of human APPSwe, i.e the Swedish mutation of APP695 isolated from a Swedish family with FAD featuring the double mutation K670N/M671L (Hsiao et al., Science 274, 99-103 (1996)). As a genetic model of tauopathy, the Tg-TauP301L mice (Model 2508, Taconic Biosciences, Rensselaer, N.Y., USA) with neuron-specific expression of the most common FTDP-17 (frontotemporal dementia and parkinsonism linked to chromosome 17) mutation (Lewis et al., Nature Genetics 25, 402-405 (2000)) were used. […]\nNeuronal cell loss and hyperphosphorylated PHF Tau were determined in hippocampi of 15 months-old Tg2576 mice, which were treated without or with Compound-1 and Compound-4 for three months during the neurodegeneration-enhancing CUMS (chronic unpredictable mild stress) protocol. Neuronal cell loss was determined with crude homogenates of dissected hippocampi by direct binding assay with the neuron-specific [125]-labeled anti-NeuN antibody (MAB377, clone A60, EMD Millipore, Merck KGaA, Darmstadt, Germany). Similarly, the neuronal cell loss-causing PHF tau hyperphosphorylation was quantified with [125]-labeled AT8 antibody. […]"}, "male B6 mice": {"tested_on": "male B6 mice", "assay": "Aging-induced deterioration of male sperm quality in B6 mice", "conditions": "18-month-old male B6 mice, 15 months treatment; for epididymal sperm count / sperm vitality (eosin-nigrosin staining) / total sperm motility: 8 mg/kg/d in drinking water", "experimental": "Sperm count, and motility were determined by microscopic semen analysis of male B6 mice at an age of 3 months and 18 months similarly as described (Komori et al., Reprod. Med. Biol. 5, 195-200, 2006). Sperm cells were isolated from male B6 mice from the epididymis as described (Esposito et al., Proc. Nat. Acad. Sci. U.S.A. 101, 2993-2998, 2004). Sperm concentration was determined with a Neubauer hemocytometer. Percentage of sperm motility was determined with a 10 microl sample loaded onto a clean slide glass and covered with a coverslip. Sperm motility was evaluated under positive phase-contrast microscopy at a total magnification of ×400, and graded according to the WHO criteria (Komori et al., Reprod. Med. Biol. 5, 195-200, 2006), i.e. percentage of motile sperm cells was counted, and the percentage of progressive and not progressive sperm motility was determined. At least 300 spermatozoa were evaluated. Spermatozoa viability was determined by eosin-nigrosine staining technique. A drop of spermatozoa suspension in PBS was mixed with one drop of aqueous eosin Y solution (1%), and incubated for 15 s. Thereafter, two drops of 10% aqueous nigrosine solution were added and mixed. An aliquot of this mixture was transferred to a glass slide, a thin smear was made, and air dried. Stained spermatozoa were examined under a light microscope, and the percentage of live sperm cells was determined. Live sperm cells appear white whereas dead sperm cells are coloured pink. Treatment of male B6 mice with Compound-1 and Compound-1F (8 mg/kg/d in drinking water) was started at an age of 3 months and continued until the end of the observation period at an age of 18 months."}}, "note": "“Also recorded” adds a separate entry of the source."}
{"compound": "O=C(C1=C(O)C(c2ccccc2)N(c2ccc3c(c2)OCO3)C1=O)C1CC1", "note": "(stereo not drawn) [Compound-1, 1-(1,3-benzodioxol-5-yl)-4-(cyclopropane-carbonyl)-3-hydroxy-2-phenyl-2H-pyrrol-5-one]", "values": [{"measurement": "female fertility (number of offspring per month)", "setting": "female B6 mice", "value": "retarded aging-induced decrease in fertility"}, {"measurement": "hippocampal content of hyperphosphorylated PHF Tau (AT8 binding)", "setting": "Tg2576 AD mice", "value": "retarded; also recorded: significantly decreased hippocampal content of hyperphosphorylated PHF Tau"}, {"measurement": "decrease in progressive sperm motility", "setting": "male B6 mice", "value": "largely prevented"}, {"measurement": "epididymal sperm count", "setting": "male B6 mice", "value": "retarded the aging-induced decrease in epididymal sperm count"}, {"measurement": "sperm vitality (eosin-nigrosin staining)", "setting": "male B6 mice", "value": "maintained sperm vitality"}, {"measurement": "total sperm motility", "setting": "male B6 mice", "value": "improved total sperm motility"}]}
{"compound": "O=C(C1=C(O)C(c2ccc(F)cc2)N(c2ccc3c(c2)OCO3)C1=O)C1CC1", "note": "(stereo not drawn) [Compound-1F, 1-(1,3-Benzodioxol-5-yl)-4-(cyclopropanecarbonyl)-2-(4-fluorophenyl)-3-hydroxy-2H-pyrrol-5-one]", "values": [{"measurement": "female fertility (number of offspring per month)", "setting": "female B6 mice", "value": "retarded aging-induced decrease in fertility"}, {"measurement": "hippocampal content of hyperphosphorylated PHF Tau (AT8 binding)", "setting": "Tg2576 AD mice", "value": "retarded"}, {"measurement": "decrease in progressive sperm motility", "setting": "male B6 mice", "value": "largely prevented"}, {"measurement": "epididymal sperm count", "setting": "male B6 mice", "value": "retarded the aging-induced decrease in epididymal sperm count"}, {"measurement": "sperm vitality (eosin-nigrosin staining)", "setting": "male B6 mice", "value": "maintained sperm vitality"}, {"measurement": "total sperm motility", "setting": "male B6 mice", "value": "improved total sperm motility"}]}
